Measured values published in PMC8498988, “Scaffold Hybridization Strategy Leads to the Discovery of Dopamine D3 Receptor-Selective or Multitarget Bitopic Ligands Potentially Useful for Central Nervous System Disorders” (ACS Chemical Neuroscience, 2021).

Experiments:
5-HT2CR [1] = target: T1, 5-HT2CR (Homo sapiens, UniProt P28335); experiment: 5-HT2C IP-1 formation (HEK-h5HT2C cells); details: for % stimul., 5-HT2C IP-1 formation: agonist mode, normalized to the maximal stimulation by serotonin; for functional behavior at 5-HT2CR: in words
T1 sequence (P28335 33-458): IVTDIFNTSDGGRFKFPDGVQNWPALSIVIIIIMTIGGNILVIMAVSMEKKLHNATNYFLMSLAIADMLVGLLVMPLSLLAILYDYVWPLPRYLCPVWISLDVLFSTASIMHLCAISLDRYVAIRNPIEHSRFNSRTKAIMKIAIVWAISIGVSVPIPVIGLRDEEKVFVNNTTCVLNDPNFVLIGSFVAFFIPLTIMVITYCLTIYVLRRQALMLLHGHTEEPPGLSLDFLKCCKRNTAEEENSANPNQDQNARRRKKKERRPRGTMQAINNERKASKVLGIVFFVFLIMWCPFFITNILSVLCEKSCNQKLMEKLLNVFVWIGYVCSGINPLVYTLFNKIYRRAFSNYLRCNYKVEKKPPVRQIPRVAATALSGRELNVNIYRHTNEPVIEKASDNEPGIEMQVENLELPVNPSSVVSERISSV
Experimental: HEK-h5HT2A or HEK-h5HT2C cells are used as the tissue source. The day before the experiment, cells are plated in 24-well plates at a density of 400,000 cells per well using DMEM supplemented with charcoal-stripped FetalClone. Drugs are made up in stimulation buffer supplied in the kit. Medium is removed from the well, test compounds or serotonin or antagonist or buffer is added, and the cells are incubated for 1 h. The cells are lysed for 30 min, and 50 μL of cell lysate is added to the IP-1 plates. After the addition of appropriate antibodies, the plates are incubated for 3 h, washed six times, incubated with the substrate for 20 min, and, after termination of the reaction, the plate is read on a plate reader at 450 nm with a correction at 620 nm.

D3R = D3R (Homo sapiens, UniProt P35462); experiment: D3 mitogenesis functional assay (CHOp-D3 cells); assay type: cell-based; parameters: expressed in transfected cells; host or cells: CHOp-D3 cells; details: for EC50 / % stimul., D3 mitogenesis assay: agonist mode; for % stimul., D3 mitogenesis assay: standard agonist quinpirole; for IC50 / % inhibition (efficacy), D3R when tested as an antagonist: antagonist mode; for IC50: inhibition of quinpirole stimulation of mitogenesis, read-out: IC50, D3R when tested as an antagonist; for % inhibition (efficacy), D3R when tested as an antagonist: standard antagonist NGB 2904; for functional behavior at D3R: in words
Experimental: CHOp-D2 and CHOp-D3 cells are maintained in α-MEM with 10% fetal bovine serum (FBS, Atlas Biologicals), 0.05% pen-strep, and 400 μg/mL of G418. […] The cells are incubated at 37 °C in α-MEM with 10% FBS. After 48–72 h, the cells are rinsed twice with serum-free α-MEM and incubated for 24 h at 37 °C. Serial dilutions of test compounds are made by the Biomek robotics system in serum-free α-MEM. In the functional assay for agonists, the medium is removed and replaced with 100 μL of test compound in serum-free α-MEM. In the antagonist assay, the serial dilution of the putative antagonist test compound is added in 90 μL (1.1× of final concentration) and 300 nM quinpirole (30 nM final) is added in 10 μL. After another 24 h (D2) or 16 h (D3) incubation at 37 °C, 0.25 μCi of [^3H]thymidine in αMEM supplemented with 10% FBS is added to each well, and the plates are further incubated for 2 h at 37 °C. The cells are trypsinized by addition of 10× trypsin solution (1% trypsin in calcium–magnesium-free phosphate-buffered saline), and the plates are filtered and counted as usual. Quinpirole is run each day as an internal control, and dopamine is included for comparative purposes.

5-HT2CR [2] = target: T1, 5-HT2CR; experiment: Radioligand binding assay at human 5-HT2CR ([125I]DOI, HEK cells); parameters: expressed in transfected cells; host or cells: HEK (HEK-h5HT2C); details: HEK cells expressing h5-HT2CR, read-out: Ki ± SEM, 5-HT2CR
Experimental: Human embryonic kidney cells expressing human 5HT2AR (HEK-h5HT2A) or human 5HT2CR (HEK-h5HT2C) are used. The cells are grown until confluent on 15 cm plates. The medium is removed, and the cells are washed with phosphate-buffered saline (PBS), scraped into 2 mL PBS, and frozen at −20 °C until needed. Cell suspension is thawed, 10 mL assay buffer (50 mM Tris, pH 7.4 at 37 °C, with 0.1% ascorbic acid and 5 mM CaCl2) is added per plate of cells, and polytronned at setting 6 for 5 s. The homogenate is centrifuged at 15,500 rpm for 20 min. To minimize the residual 5HT concentration, the pellet is resuspended in buffer, polytronned, and centrifuged as mentioned above. The final pellet is resuspended in 2 mL buffer/plate of cells. The binding assay includes 50 μL drug, 5-HT or buffer, 50 μL cell homogenate, 50 μL [^125I]DOI (∼0.1 nM), and buffer in a final volume of 250 μL. Specific binding is defined as the difference between total binding and binding in the presence of 10 μM 5HT. The reaction is incubated for 1 h at 37 °C and terminated by filtration through Wallac A filter mats presoaked in 0.05% polyethylenimine using a Tomtec 96-well harvester. The radioactivity remaining on filters is determined using a Wallac betaplate reader.

D3R, sequence (P35462 whole entry): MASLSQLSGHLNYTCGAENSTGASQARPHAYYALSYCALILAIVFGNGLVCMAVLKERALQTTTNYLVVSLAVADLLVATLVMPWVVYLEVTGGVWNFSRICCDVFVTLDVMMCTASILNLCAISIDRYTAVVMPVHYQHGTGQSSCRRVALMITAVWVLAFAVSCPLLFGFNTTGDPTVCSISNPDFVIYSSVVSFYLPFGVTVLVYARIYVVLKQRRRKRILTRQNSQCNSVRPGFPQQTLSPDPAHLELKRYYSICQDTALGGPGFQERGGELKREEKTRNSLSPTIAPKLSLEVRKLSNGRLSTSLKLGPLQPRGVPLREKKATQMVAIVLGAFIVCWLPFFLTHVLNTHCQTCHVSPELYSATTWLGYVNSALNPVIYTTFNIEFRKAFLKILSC

In the case of O=C(NCCCCN1CCN(c2cccc(Cl)c2Cl)CC1)C1COC(c2ccccc2)(c2ccccc2)CO1 (stereo not drawn) [compound 6, N-(4-(4-(2,3-Dichlorophenyl)piperazin-1-yl)butyl)-5,5-diphenyl-1,4-dioxane-2-carboxamide], the EC50 (5-HT2CR [1]) is reported as 380 ± 130 nM, the “% stimul., 5-HT2C IP-1 formation” value (5-HT2CR [1]) is reported as 33% and the “functional behavior at 5-HT2CR” value (5-HT2CR [1]) is reported as “D3R and 5-HT2CR partial agonists with high and low potency, respectively”. The EC50 (D3R) was 2.72 nM, the “% stimul., D3 mitogenesis assay” value (D3R) was 25.7% and the IC50 (D3R) was 6.6 nM. For the same molecule, the “% inhibition (efficacy), D3R when tested as an antagonist” value (from here on “% inhibition (efficacy), D3R”) (D3R) was 64.0%, the “functional behavior at D3R” value (D3R) was “D3R and 5-HT2CR partial agonists with high and low potency, respectively” and the Ki (5-HT2CR [2]) was 90 ± 16 nM.
In the case of O=C(NCCCCN1CCN(c2cccc(Cl)c2Cl)CC1)C1COc2ccccc2O1 (stereo not drawn) [compound 9, N-(4-(4-(2,3-Dichlorophenyl)piperazin-1-yl)butyl)-2,3-dihydrobenzo[b][1,4]dioxine-2-carboxamide], the EC50 (5-HT2CR [1]) is reported as 750 ± 280 nM, the “% stimul., 5-HT2C IP-1 formation” value (5-HT2CR [1]) is reported as 37% and the “functional behavior at 5-HT2CR” value (5-HT2CR [1]) is reported as “D3R and 5-HT2CR partial agonists with high and low potency, respectively”. For the same molecule, the EC50 (D3R) was 5 ± 1.7 nM, the “% stimul., D3 mitogenesis assay” value (D3R) was 34.0% and the IC50 (D3R) was 40.4 nM. For the same molecule, the “% inhibition (efficacy), D3R” value (D3R) was 64.2%, the “functional behavior at D3R” value (D3R) was “D3R and 5-HT2CR partial agonists with high and low potency, respectively” and the Ki (5-HT2CR [2]) was 97 ± 25 nM.
O=C(NCCCCN1CCN(c2cccc(Cl)c2Cl)CC1)C1COCC(c2ccccc2)(c2ccccc2)O1 (stereo not drawn) [compound 3, N-(4-(4-(2,3-Dichlorophenyl)piperazin-1-yl)butyl)-6,6-diphenyl-1,4-dioxane-2-carboxamide] was tested, and the EC50 (D3R) was 9.8 ± 1.6 nM, the “% stimul., D3 mitogenesis assay” value (D3R) was 36% and the IC50 (D3R) was 38 nM. For the same molecule, the “% inhibition (efficacy), D3R” value (D3R) was 82.7%, the “functional behavior at D3R” value (D3R) was “partial agonist” and the Ki (5-HT2CR [2]) was 642 ± 80 nM.
